Laboratory results published in patent US10745400B2, “Inhibition of BMP signaling, compounds, compositions and uses thereof” (Vanderbilt University, priority 2018, dated 2020).
Changes are numbered by the printed parent chain. Where two headings read alike, the source gives them in different places.

Experiments:
ALK3/BMPR1A = ALK3/BMPR1A (Homo sapiens, UniProt P36894); experiment: Kinase assay (33P-ATP filter-binding), ALK3; type: biochemical; conditions: 1 mM; read-out: Kinase Selectivity ALK3/BMPR1A (1 mM)
Outline: (§1)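 Activity was read by spotting reactions onto P81 ion exchange paper (filter binding) after 2 hours at room temperature with 33P-ATP. Kinase and substrate sat in Hepes pH 7.5 buffer with MgCl2, EGTA, Brij35, BSA, Na3VO4, DTT and 1% DMSO; compound was added 20 minutes before ATP.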

[1] = Intrinsic clearance, mouse; type: in vitro ADME; conditions: mouse
KDR = KDR (Homo sapiens, UniProt P35968); experiment: Kinase assay (33P-ATP filter-binding), KDR; type: biochemical; conditions: read-out: Kinase Selectivity KDR
Description: (§2) The kinase assays were carried out briefly as follows. Substrate was prepared in Base Reaction Buffer (20 mM Hepes (pH 7.5), 10 mM MgCl2, 1 mM EGTA, 0.02% Brij35, 0.02 mg/ml BSA, 0.1 mM Na3VO4, 2 mM DTT, 1% DMSO). The indicated kinases was delivered into the substrate solution and allowed to gently mix. Next, the specific compound was delivered in DMSO into the kinase mixture by Acoustic technology (Echo550; nanoliter range), and allowed to incubate for 20 minutes at room temperature. Next, ^33P-ATP was delivered into the reaction mixture to initiate the reaction and allowed to incubate at room temperature. After 2 hours, the reactions were spotted onto P81 ion exchange paper and the kinase activity is detected by the filter-binding method.

AMPK = experiment: Kinase assay (33P-ATP filter-binding), AMPK; type: biochemical; conditions: read-out: Kinase Selectivity AMPK
Description: as §2

ALK6 = ALK6 (Homo sapiens, UniProt O00238); experiment: Kinase assay (33P-ATP filter-binding), ALK6; type: biochemical; conditions: read-out: Kinase Selectivity ALK6
Description: as §2

ALK4 = target: T1, ALK4 (Homo sapiens, UniProt P36896); experiment: Kinase assay (33P-ATP filter-binding), ALK4; type: biochemical; conditions: read-out: Kinase Selectivity ALK4
T1 sequence (P36896 24-505): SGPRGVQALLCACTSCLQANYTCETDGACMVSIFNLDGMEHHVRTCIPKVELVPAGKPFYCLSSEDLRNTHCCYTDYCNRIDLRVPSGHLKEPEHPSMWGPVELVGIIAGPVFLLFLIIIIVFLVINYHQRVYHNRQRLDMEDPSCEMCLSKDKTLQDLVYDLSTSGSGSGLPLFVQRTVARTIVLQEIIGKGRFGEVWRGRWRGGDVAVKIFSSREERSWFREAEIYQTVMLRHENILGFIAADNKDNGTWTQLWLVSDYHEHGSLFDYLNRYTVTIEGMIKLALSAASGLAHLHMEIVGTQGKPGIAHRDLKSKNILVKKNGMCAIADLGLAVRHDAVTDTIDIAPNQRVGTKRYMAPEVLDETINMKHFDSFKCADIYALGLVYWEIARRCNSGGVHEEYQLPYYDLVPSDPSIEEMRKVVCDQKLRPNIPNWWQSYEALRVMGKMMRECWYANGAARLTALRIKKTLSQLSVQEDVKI
Description: as §2

ALK2/ACVR1 = target: T2, ALK2/ACVR1 (Homo sapiens, UniProt Q04771); experiment: Kinase assay (33P-ATP filter-binding), ALK2; type: biochemical; conditions: 20 mM; read-out: Kinase Selectivity ALK2/ACVR1 (20 mM)
T2 sequence (Q04771 21-509): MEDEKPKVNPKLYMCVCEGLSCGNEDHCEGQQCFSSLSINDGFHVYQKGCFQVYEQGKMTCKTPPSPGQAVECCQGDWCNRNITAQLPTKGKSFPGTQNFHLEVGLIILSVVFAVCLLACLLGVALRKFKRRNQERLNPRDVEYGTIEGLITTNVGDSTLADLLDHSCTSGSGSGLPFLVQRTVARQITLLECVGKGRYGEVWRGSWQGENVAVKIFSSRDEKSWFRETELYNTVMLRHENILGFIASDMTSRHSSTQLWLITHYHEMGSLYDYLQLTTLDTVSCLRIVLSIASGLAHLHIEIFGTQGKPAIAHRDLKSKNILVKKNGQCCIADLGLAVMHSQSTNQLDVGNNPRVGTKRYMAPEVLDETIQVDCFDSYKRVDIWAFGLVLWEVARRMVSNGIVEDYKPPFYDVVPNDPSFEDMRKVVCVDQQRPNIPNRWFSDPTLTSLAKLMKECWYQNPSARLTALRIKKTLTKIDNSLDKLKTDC
Outline: as §1

PDGFRb = PDGFRb (Homo sapiens, UniProt P09619); experiment: Kinase assay (33P-ATP filter-binding), PDGFRb; type: biochemical; conditions: read-out: Kinase Selectivity PDGFRb
Description: as §2

[2] = tested on: BMP-responsive C2C12 mouse myoblast cells stimulated with BMP4; experiment: BMP4 cell assay (Id1 promoter-firefly luciferase reporter); type: cell-based; conditions: Mus musculus; C2C12 cells, BMP4 50 ng/mL, overnight
ALK2 (Q207D) = target: T3, ALK2 (Q207D) (Homo sapiens, UniProt Q04771, Q207D); experiment: Kinase assay (33P-ATP filter-binding), ALK2 Q207D; type: biochemical; conditions: Q207D mutant, 20 mM; read-out: Kinase Selectivity ALK2 (Q207D, 20 mM)
T3 sequence (Q04771 21-509 Q207D): T2 sequence (Q04771 21-509) with Q187D
Outline: as §1

[3] = CL-Hep, value in parentheses, read-out: Intrinsic Clearance Mouse (CL-Hep)
[4] = read-out: Intrinsic Clearance Mouse

Chain of KDR (P35968 20-1356, species assumed): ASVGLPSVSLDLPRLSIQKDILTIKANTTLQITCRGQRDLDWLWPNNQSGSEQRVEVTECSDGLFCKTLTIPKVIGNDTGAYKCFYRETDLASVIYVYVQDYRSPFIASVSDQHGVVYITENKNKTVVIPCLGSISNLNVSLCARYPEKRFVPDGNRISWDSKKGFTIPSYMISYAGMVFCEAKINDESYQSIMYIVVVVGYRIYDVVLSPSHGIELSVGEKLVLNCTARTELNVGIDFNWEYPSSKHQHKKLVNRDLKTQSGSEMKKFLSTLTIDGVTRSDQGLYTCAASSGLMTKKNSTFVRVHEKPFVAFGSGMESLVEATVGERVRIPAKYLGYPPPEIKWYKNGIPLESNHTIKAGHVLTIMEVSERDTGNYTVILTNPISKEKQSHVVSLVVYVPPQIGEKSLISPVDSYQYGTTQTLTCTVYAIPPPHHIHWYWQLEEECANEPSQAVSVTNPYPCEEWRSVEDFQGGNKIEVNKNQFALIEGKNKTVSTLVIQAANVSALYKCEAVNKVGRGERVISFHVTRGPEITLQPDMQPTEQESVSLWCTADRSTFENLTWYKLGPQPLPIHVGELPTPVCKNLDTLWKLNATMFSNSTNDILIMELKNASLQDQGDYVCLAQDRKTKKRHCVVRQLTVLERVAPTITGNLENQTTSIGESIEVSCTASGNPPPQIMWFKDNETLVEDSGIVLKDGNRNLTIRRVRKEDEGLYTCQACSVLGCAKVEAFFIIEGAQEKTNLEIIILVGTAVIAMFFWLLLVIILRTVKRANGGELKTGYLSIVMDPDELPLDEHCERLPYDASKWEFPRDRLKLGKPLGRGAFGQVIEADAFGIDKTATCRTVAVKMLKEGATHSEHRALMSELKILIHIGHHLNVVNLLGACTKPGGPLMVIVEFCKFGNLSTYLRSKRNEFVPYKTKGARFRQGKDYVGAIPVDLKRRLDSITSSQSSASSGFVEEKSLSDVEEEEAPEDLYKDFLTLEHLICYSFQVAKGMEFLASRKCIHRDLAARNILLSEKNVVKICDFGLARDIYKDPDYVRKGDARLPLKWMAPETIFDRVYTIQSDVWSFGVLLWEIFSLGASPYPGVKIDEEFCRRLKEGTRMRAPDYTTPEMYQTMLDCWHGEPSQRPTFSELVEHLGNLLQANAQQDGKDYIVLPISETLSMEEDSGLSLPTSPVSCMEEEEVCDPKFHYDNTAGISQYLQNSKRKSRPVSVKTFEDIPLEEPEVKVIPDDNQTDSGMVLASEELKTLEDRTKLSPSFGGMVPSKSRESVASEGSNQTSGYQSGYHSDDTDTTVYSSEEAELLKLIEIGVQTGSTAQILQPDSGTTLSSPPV
Chain of ALK3/BMPR1A (P36894 24-532): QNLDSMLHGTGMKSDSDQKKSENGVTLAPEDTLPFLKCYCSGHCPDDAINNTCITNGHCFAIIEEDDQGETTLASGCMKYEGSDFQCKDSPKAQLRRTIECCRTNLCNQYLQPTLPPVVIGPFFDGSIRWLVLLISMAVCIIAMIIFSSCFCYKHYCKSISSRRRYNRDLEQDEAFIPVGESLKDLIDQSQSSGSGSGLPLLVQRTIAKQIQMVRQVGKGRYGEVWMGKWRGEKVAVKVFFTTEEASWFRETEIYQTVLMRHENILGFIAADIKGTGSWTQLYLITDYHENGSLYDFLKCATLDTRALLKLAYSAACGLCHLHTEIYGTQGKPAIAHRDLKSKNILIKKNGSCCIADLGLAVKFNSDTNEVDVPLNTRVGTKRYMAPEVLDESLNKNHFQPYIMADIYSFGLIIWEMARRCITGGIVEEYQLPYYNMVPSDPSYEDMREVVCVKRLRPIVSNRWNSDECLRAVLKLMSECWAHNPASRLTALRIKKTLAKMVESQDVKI
Chain of PDGFRb (P09619 33-1106, species assumed): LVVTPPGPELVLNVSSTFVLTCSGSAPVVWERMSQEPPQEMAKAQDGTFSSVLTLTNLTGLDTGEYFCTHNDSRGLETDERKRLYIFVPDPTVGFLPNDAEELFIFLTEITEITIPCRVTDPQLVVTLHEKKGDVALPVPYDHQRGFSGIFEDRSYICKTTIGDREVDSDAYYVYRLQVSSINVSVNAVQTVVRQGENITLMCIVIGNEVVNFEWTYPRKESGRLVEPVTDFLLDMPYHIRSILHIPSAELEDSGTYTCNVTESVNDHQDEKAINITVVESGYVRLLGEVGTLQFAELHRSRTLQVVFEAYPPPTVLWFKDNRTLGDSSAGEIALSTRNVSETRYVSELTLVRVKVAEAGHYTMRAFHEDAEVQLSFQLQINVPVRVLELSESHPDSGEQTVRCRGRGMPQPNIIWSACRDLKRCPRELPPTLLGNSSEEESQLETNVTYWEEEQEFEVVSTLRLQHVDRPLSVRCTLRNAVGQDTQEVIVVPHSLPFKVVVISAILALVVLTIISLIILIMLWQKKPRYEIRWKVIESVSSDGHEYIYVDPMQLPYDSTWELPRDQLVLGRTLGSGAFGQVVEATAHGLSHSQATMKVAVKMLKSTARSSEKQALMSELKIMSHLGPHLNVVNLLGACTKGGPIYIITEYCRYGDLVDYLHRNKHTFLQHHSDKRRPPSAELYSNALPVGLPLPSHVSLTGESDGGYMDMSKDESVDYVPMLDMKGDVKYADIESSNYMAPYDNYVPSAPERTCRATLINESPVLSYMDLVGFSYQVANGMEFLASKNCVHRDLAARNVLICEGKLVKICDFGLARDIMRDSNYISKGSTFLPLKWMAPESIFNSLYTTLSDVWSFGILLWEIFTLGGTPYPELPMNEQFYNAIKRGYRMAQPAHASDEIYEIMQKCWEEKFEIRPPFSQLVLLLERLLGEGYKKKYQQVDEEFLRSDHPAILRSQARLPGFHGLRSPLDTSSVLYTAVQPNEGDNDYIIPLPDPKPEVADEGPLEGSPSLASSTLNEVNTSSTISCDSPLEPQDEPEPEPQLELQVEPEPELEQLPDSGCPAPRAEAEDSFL
Chain of ALK6 (O00238 14-502): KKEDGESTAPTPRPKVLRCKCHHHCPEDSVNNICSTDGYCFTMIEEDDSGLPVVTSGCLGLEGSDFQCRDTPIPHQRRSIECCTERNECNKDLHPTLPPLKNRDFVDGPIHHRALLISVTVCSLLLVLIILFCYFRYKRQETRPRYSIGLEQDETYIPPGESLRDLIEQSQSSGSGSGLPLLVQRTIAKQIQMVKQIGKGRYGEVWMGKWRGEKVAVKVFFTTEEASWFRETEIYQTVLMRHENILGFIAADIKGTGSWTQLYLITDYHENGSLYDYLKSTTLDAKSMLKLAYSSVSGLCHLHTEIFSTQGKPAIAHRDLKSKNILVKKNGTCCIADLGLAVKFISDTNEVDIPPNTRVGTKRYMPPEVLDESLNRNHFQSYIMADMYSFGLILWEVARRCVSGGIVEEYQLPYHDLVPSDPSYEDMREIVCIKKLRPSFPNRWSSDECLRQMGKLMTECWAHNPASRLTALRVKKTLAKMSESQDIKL

| SMILES | IC50 (ALK3/BMPR1A) | CLint scaled [1, 3] | CLint scaled [1, 4] | IC50 (KDR) | IC50 (AMPK) | IC50 (ALK6) | IC50 (ALK4) | IC50 (ALK2/ACVR1) | IC50 (PDGFRb) | IC50 [2] | IC50 (ALK2 (Q207D)) |
| --- | --- | --- | --- | --- | --- | --- | --- | --- | --- | --- | --- |
| Cc1cc(-c2cnc3cc(-c4ccc(C5COC6(CCNCC6)CN5)cc4)ccn23)c2cc(F)cc(F)c2n1 (centres unmarked) [Compound 16] | < 5.1 nM | < 32.9 mL/min/kg | < 49.5 mL/min/kg | 39300 nM | 39100 nM | 188 nM | 775 nM | < 5.1 nM | 7700 nM | 87.7 nM | 6.3 nM |
| Cc1cc(-c2cnc3cc(-c4ccc(C5COCC(C)N5)cc4)ccn23)c2cc(F)cc(F)c2n1 (centres unmarked) [Compound 23] | < 5.1 nM | 42.9 mL/min/kg | 82.2 mL/min/kg | 47400 nM | > 100000 nM | 369 nM | 164 nM | < 5.1 nM | 7340 nM | – | < 5.1 nM |
| Cc1cc(-c2cnc3cc(-c4ccc(C5COC6(CCNC6)CN5)cc4)ccn23)c2cc(F)cc(F)c2n1 (centres unmarked) [Compound 27] | 13.5 nM | < 32.9 mL/min/kg | < 49.5 mL/min/kg | > 100000 nM | 18900 nM | 429 nM | 2030 nM | 29.1 nM | 21700 nM | 248 nM | 219 nM |

Now from value to compound:

| IC50 (ALK3/BMPR1A) | CLint scaled [1, 3] | CLint scaled [1, 4] | IC50 (KDR) | IC50 (AMPK) | IC50 (ALK6) | IC50 (ALK4) | IC50 (ALK2/ACVR1) | IC50 (PDGFRb) | IC50 [2] | IC50 (ALK2 (Q207D)) | SMILES |
| --- | --- | --- | --- | --- | --- | --- | --- | --- | --- | --- | --- |
| < 5.1 nM | < 31.9 mL/min/kg | < 49.5 mL/min/kg | 9350 nM | 20000 nM | 54.5 nM | 192 nM | 16.5 nM | 2820 nM | 13.5 nM | < 5.1 nM | c1cnc2nccc(-c3cnc4cc(-c5ccc(C6CNCCN6)cc5)ccn34)c2c1 (centres unmarked) [Compound 32] |
| 82.7 nM | < 31.9 mL/min/kg | < 49.5 mL/min/kg | 39300 nM | 39100 nM | 188 nM | 775 nM | < 5.1 nM | 7700 nM | 87.7 nM | < 5.1 nM | c1cc(-c2cnc3cc(-c4ccc(C5CNCCN5)cc4)ccn23)c2cccnc2c1 (centres unmarked) [Compound 33] |
| 295 nM | – | – | 36900 nM | 11500 nM | 188 nM | 390 nM | < 5.1 nM | 6930 nM | 29.6 nM | < 5.1 nM | O=C1CNC(=O)C(c2ccc(-c3ccn4c(-c5cccc6ncccc56)cnc4c3)cc2)N1 (centres unmarked) [Compound 36] |
| 20300 nM | < 31.9 mL/min/kg | < 49.5 mL/min/kg | 31400 nM | 9320 nM | 231 nM | 386 nM | 14.6 nM | 6490 nM | 34.9 nM | 5.8 nM | NS(=O)(=O)c1ccc(-c2cnc3cc(-c4ccc(C5CNCCN5)cc4)ccn23)c2ccccc12 (centres unmarked) [Compound 37] |
